# Legend:
# [1] = Other systemic effects and post mortem examination; type: in vivo, rat; details: for systemic changes (palsies, coat, dyspnoea, death, post mortem lesions): 3 weeks feeding
# Protocol: (§1) Rat model system: The rat achilles tendon model is used to test model compounds for biological activity i.e. the ability to promote or inhibit wound healing in vivo. As described in Example 1 below, one Achilles tendon in each rat is transsected surgically, and allowed to heal for periods ranging from 6 hours to 14 days. At each time point, the degree of healing is first assessed by measuring walking speed. The animals are then sacrificed and the tendons are excised and subjected to biomechanical testing and morphological and immunochemical analysis. NOS activity is measured in the excised tendons as above. Finally, body and muscle weight are monitored, and systemic and local toxicity are assessed by macroscopic and microscopic post-mortem examination. It will be understood by a skilled practitioner that any small mammal suitable for testing may be used, including rats, mice, rabbits, guinea pigs, and the like.
# (§2) In the following NOS inhibition experiments, animals were fed the indicated chemicals at 1 mg/ml in their drinking water ad libitum for four days prior to surgical division of the right Achilles tendon and throughout the post-operative experimental period, with the exception of experiment (c)*, where the drugs were given from the immediate post-operative period:
# (§3) (d) 3 weeks D-NAME (n=8), L-NAME (n=8), L-arginine (n=8), walking speed assessments at days 1,4,8,11,15,18,22, biomechanical assessment, muscle weight and autopsy at day 22.
# [2] = Body and muscle weight of rats fed the chemicals; type: in vivo, rat; details: for increase of weight: over 22 days, same dose
# Protocol: as §2, §3
# All animals were weighed prior to surgery, at weekly intervals, and at sacrifice. After sacrifice the right triceps of rats fed D-NAME (n=8), L-NAME (n=8) or L-arginine (n=8) for three weeks was harvested, weighed for wet weight, lyophilized for dry weight and the water content calculated.
# [3] = tested on: cultured bovine chondrocytes; experiment: NO2- release from cultured bovine chondrocytes (Greiss reaction); type: cell-based; details: for release of NO2-: endotoxin at 1 μg/ml, no constitutive release
# [4] = tested on: surgically divided Achilles tendon; experiment: Rat Achilles tendon healing model with nitric oxide synthase inhibition (morphology, biomechanics); type: in vivo; details: for distance separating the cut ends of the healing tendon (5-8 mm): 1 mg/ml in drinking water
# Protocol: as §1, §2
# (a) 1 week D-NAME (n=9) vs L-NAME (n=11); walking speed and biomechanical analyses at day 7. […]
# The rats were housed in beta-chip-lined plastic cages, two animals per cage, with a 12-hour light, 12 hour dark cycle in an animal care facility and fed rat chow and water ad libitum. Anaesthesia was achieved by intraperitoneal injection of 80 mg/kg ketamine (Park Davis, Morris Plains, N.J.) and 5 mg/kg xylazine (Miles Inc, Shawnee Mission, Kans.). All surgical procedures were performed under sterile conditions with the aid of 2.5x microsurgical loops. The surgical procedure was similar to that previously outlined. A 3 cm midline incision was made over the right Achilles tendon and the Achilles tendon and plantaris were isolated from the surrounding fascia. The underlying fascia was disrupted by spreading with a pair of small straight scissors. The tendinous portion of the plantaris was removed and the Achilles tendon was divided cleanly in its mid-substance, 0.5 cm from its calcaneal insertion with a scalpel. The skin was then sutured with two simple nylon sutures of 5-0 ethilon monofilament nylon on a PC-1 cutting needle (Ethicon Inc, N.J.). No operation was performed on the left, uninjured, hind limb. No cast or dressings were applied and the animals were unrestricted during the healing phase. The animals were sacrificed by CO2 inhalation.
# One hundred and fifty two harvested lower limbs were placed in phosphate buffered saline (PBS), frozen and stored at −70° C. for an average of seven days prior to testing. On the day prior to testing the specimens were thawed. All extraneous soft and hard tissues were removed by blunt and sharp dissection from the Achilles tendon, formerly intramuscular tendinous fibers and the hind foot. Area measurements of the uninjured and sham operated tendons were made with an area micrometer (Mitutoyo, Tokyo, Japan). Length measurements were made with a 0.02 mm calibrated caliper (Draper, Japan). The formerly intramuscular tendinous fibers were then secured between two strips of white labelling tape with Thick Gel Super Glue® (Super Glue Corporation, N.Y.) such that the distal edge of the tape was 1.0 cm from the calcaneal insertion. The calcaneus was fixed at 45° in an adjustable rubber-gripped clamp (Panavise, Sparks, Nev.). Throughout the procedure care was taken to ensure that neither the Super Glue® nor the self curing plastic contaminated the tendon proper and the specimens were kept moist by application of PBS. Mechanical testing was carried out using a MTS 810 material test system (MTS Systems Corporation, PN). Each specimen underwent a constant velocity ramp to failure test at 1 cm/sec (≈100%/sec). […]
# [5] = Walking speed assessment in a confined walkway; type: in vivo, rat
# Protocol: as §2
# The animals were tested in a confined walkway with a dark shelter at the end. Each rat was held by its chest at the start of the walkway and then allowed to walk/run to the dark shelter at the end of the walkway. The time taken for the rat to cover the first half (21.5 cm) and the total length (43 cm) of the walkway was measured by individuals blinded to the treatment groups.
# [6] = fed from the immediate post-operative period, day 15
compound,measurement,setting,value
"COC(=O)[C@H](N)CCCN=C(N)N[N+](=O)[O-] [D-NAME, Nw-nitro-D-arginine methyl ester]","systemic changes (palsies, coat, dyspnoea, death, post mortem lesions)",[1],failed to display any of the above changes
same,increase of weight,[2],30%
O=C(O)CN(CCOCCOCCN(CC(=O)O)CC(=O)O)CC(=O)O [EGTA],inhibition of endotoxin-induced NO2- production,[3],not inhibited
IL-1β: inflammatory mediator,release of NO2-,[3],100 nmol NO2^−/106 cells/24 hours
N=C(N)NCCC[C@H](N)C(=O)O [L-arginine],distance separating the cut ends of the healing tendon (5-8 mm),[4],did not change
same,"systemic changes (palsies, coat, dyspnoea, death, post mortem lesions)",[1],failed to display any of the above changes
same,effect on muscle weight,[2]; day 22,no effect
same,increase of weight,[2],30%
TNF-α,release of NO2-,[3],100 nmol NO2^−/106 cells/24 hours
"COC(=O)[C@@H](N)CCCNC(=N)N[N+](=O)[O-] [L-NAME, Nw-nitro-L-arginine methyl ester]",behavior and walking speed,[5]; after day 11,"progressively quieter, slower"
same,systemic change: walking speed,[5]; [6],loss of walking speed
same,behavior or walking speed,[5]; first week of treatment,no changes
same,inhibition of endotoxin-induced NO2- production,[3],completely inhibited
same,distance separating the cut ends of the healing tendon (5-8 mm),[4],did not change
same,microscopic appearance of the healing tissue (light microscopy),[4]; L-NAME versus D-NAME fed rats,no subjective differences
same,failure load of uninjured Achilles tendon constructs,[4]; day 7,unaffected
same,inhibition of cross-sectional area of healing Achilles tendon,"[4]; day 7, given orally 1 mg/ml in drinking water from four days prior to surgery, p<0.01 vs D-NAME",30%
same,reduction in failure load on the formerly divided side,"[4]; day 7, p<0.01",24%
same,inhibition of cross-sectional area of healing Achilles tendon,"[4]; day 15, given orally from four days prior to surgery, p<0.001",50%
same,inhibition of cross-sectional area of healing Achilles tendon,"[4]; day 22, given orally from four days prior to surgery, p<0.05",17%
same,failure load,[4]; [6],failed to show any changes
same,tendon cross-sectional area,[4]; [6],failed to show any changes
same,"toe displacement, maximum displacement, stiffness, energy, modulus or maximum stress of surgically divided or uninjured Achilles constructs","[4]; rat, in vivo",did not affect
same,rats that died,"[1]; day 21, group of eight rats",Two
same,post mortem examination findings,"[1]; day 22, all rats","scant body fat, empty small intestines, myocardial lesions consistent with infarction and granular kidneys"
same,rats that developed severe dyspnoea,[1]; from day 15,⅝
same,coat and peri-orbital changes,"[1]; from day 15, all rats",lost coat texture and developed peri-orbital rubor
same,rats that developed motor palsies of upper or lower limbs,"[1]; from day 15, group of eight rats",Four out of the eight
same,body weight over the first 15 days of treatment,[2]; 1 mg/ml in drinking water,either failed to gain weight or lost weight
same,lighter than initial preoperative weight,"[2]; by day 22, p<0.001",30%
same,loss in dry muscle weight (right triceps),"[2]; day 22, p<0.01",40%
same,loss in wet muscle weight (right triceps),"[2]; day 22, p<0.01",30%
same,systemic change: weight,[2]; [6],weight loss
